The values that follow are results of earlier work, collected in patent publication US12295943B2 (Closed Loop Medicine Ltd., priority 2023, dated 2025).

Like-named read-outs stand apart in the source and are kept apart here.

For data set [1], the system named is stroke. The following applies: AF patients.
Data set [2] concerns metabolic enzymes or transport mechanisms. As to conditions: in vitro.
Data set [3] concerns the target CYP3A4 (Homo sapiens, UniProt P08684). As to conditions: CYP3A4, linked with P-glycoprotein transporter.
Test in data set [4]: not given
The source holds these as a separate data set.

Test in data set [5]: not given
The source holds these as a separate data set.

The conditions of data set [6]: for trough plasma level range: steady state.
Test in data set [7]: not given
The source holds these as a separate data set.

For data set [8], the system named is patients with nonvalvular AF.
For data set [9] the following is noted: in vivo.
[10] abbreviates: high body weight (≥120 kg) vs reference group.
Where [11] appears, read: low body weight (≤50 kg) vs reference group (65-85 kg).

Chain of CYP3A4 (P08684 whole entry): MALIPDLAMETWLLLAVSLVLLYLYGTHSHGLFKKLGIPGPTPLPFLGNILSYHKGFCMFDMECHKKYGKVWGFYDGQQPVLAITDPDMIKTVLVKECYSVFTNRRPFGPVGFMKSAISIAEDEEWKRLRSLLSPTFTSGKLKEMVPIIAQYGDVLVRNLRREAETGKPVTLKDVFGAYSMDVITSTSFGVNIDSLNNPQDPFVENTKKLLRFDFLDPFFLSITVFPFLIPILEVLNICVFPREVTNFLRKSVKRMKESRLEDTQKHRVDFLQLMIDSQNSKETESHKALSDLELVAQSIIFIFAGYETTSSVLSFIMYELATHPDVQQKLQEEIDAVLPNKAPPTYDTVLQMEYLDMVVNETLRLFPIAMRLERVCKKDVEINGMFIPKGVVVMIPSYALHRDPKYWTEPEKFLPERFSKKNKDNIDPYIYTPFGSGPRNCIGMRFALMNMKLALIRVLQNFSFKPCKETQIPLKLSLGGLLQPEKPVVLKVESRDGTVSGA

`CC(=O)CC(c1ccccc1)c1c(O)c2ccccc2oc1=O` (stereo not shown) [warfarin]: the reduction of stroke entry in data set [1] is reported as “about 60%”.
`COc1ccc(-n2nc(C(N)=O)c3c2C(=O)N(c2ccc(N4CCCCC4=O)cc2)CC3)cc1` [Apixaban]: the “observed drug plasma levels lower in the evening than in the morning” value (evening versus morning) is listed as roughly 50%. For the setting “healthy human volunteers”, the “coefficient of variance for AUC of the plasma level time profile” value is roughly 30% and the “coefficient of variance for Cmax” value is roughly 30%. Besides, for the setting “human, in vivo”, the “direct intestinal excretion into the faeces, unchanged drug” value was 34%; the “dose excreted by renal route” value is given as 20-25%; the elimination via metabolism is roughly 20%; the renal clearance was 15 mL/min. Moreover, for the setting “human, in vivo”, the “renal clearance as share of GFR” value is ~12 % of GFR, the total body clearance was 50 mL/min and the “total body clearance as share of liver blood flow” value is reported as roughly 3 % liver blood flow. Under “human, in vivo, po”, the absolute oral bioavailability is recorded as roughly 50%. Further, where the note is “iv or oral solution”, the “half-life after iv or oral solution” value is roughly 5 h. Under “oral, without food”, the “time of maximum concentration after oral administration” value was 3 to 4 h and the “time of maximum concentration, range” value was 1 to 6 h. Also, for the setting “repeated administration”, the “increase in levels at steady state compared to the first dose” value is roughly 65% and the “time to steady state after repeated administration” value is no more than 3 days. Under “with food”, the “delay of maximum concentration by food” value is roughly 1 h and the “time of maximum concentration with food, range” value is 1 to 9 h. Besides, in data set [2], the “inhibition or induction of metabolic enzymes or transport mechanisms” value is reported as “does not inhibit or induce”. The substrate status entry in [3] was “substrate primarily for CYP3A4”. In addition, in [4] (with Clarithromycin), the “increase in mean apixaban AUC 0-∞” value was 1.6 fold and the “increase in mean apixaban Cmax” value is recorded as 1.3 fold. In data set [4] (with Clarithromycin (Table 2)), the “increase in AUC” value is ~50% increase in Cmax and AUC; the “increase in Cmax” value was ~50% increase in Cmax and AUC. The “increase in AUC” value in [4] (with Diltiazem) is roughly 40% increase in AUC. In data set [4] (with Ketaconazole or other CYP 3A4/PgP inhibitors), the “increase in AUC” value is roughly 100% increase in AUC. Moreover, the “increase in exposure (drug levels)” value in [4] (with Ketoconazole (CYP 3A4 inhibitor)) is on record as roughly 2 fold. The “decrease in AUC” value in data set [4] (with Riampin or other CYP 3A4 inducers) is roughly 50% decrease in AUC. The decrease in exposure in data set [4] (with rifampicin) is recorded as roughly 50%. For the same compound, in [5] (setting [10]), the “lower apixaban AUC0-∞” value is on record as roughly 23% and the “lower apixaban Cmax” value is recorded as “approximately 31%”. In [5] (setting [11]), the “higher AUC0-∞” value is listed as roughly 20% and the “higher maximum apixaban plasma concentration (Cmax)” value is “approximately 27%”. For the same compound, the “trough plasma level range” value in data set [6] (2.5 mg dose) is 20 to 180 ng/mL. Moreover, in data set [6] (5 mg dose), the “trough plasma level range” value is 10 to 310 ng/mL. For the same compound, in data set [6] (in vivo), the “variability in drug plasma levels across the population for a given dose” value is listed as 6-10 FOLD. For the same compound, the AGEP in data set [7] (age coefficient on non-renal clearance, AGEREF 60 years) was 0.267. Besides, the VC/F in data set [7] (apparent central volume of distribution) is recorded as 32.1 L. Moreover, in data set [7] (apparent inter-compartmental clearance), the Q/F was 1.62 L/h. In addition, the VP/F in data set [7] (apparent peripheral volume of distribution) is reported as 19.8 L. Further, the “CLNR/F (Ref)” value in data set [7] (non-renal component of apparent clearance) was 2.52 L/h. In data set [7] (power coefficients for CrCL versus CL/F), the “θ1, θ2” value was 1.0. In data set [7] (shape parameter of dose versus relative bioavailability), the “┌” value was 0.853. Besides, in data set [7] (weight coefficient on Vc/F, WTref 85.0 kg), the WTP is on record as 0.523. Further, in data set [8], the “efficacy compared with warfarin” value is recorded as “superior to warfarin” and the “risk of intracranial bleeds compared with warfarin” value is listed as “small reduction”. Also, the principle side effect entry in data set [9] was “increased bleeding tendency, with undesired haemorrhage, sometimes fatal”.
Regarding `[H]/N=C(/N)c1ccc(NCc2nc3cc(C(=O)N(CCC(=O)O)c4ccccn4)ccc3n2C)cc1` [dabigatran], the “share cleared through the kidneys” value (human, in vivo) is listed as roughly 80%.
